Results reported in US11065231B2, “Compounds and methods for the targeted degradation of interleukin-1 receptor- associated kinase 4 polypeptides” (Arvinas Operations, Inc., priority 2017, dated 2021).

Experiments:
[1] = target: T1, IRAK4 (Homo sapiens (Human), UniProt Q9NWZ3); experiment: Biochemical Z'-Lyte FRET assay for IRAK4 kinase inhibition; details: 2 nM enzyme, 1 mM ATP, 2 μM substrate
Protocol: Biochemical Assay for IRAK4 Kinase Inhibition.
A Z′-Lyte assay based on a fluorescence resonance energy transfer (FRET) readout was developed for measuring IRAK4-dependent phosphorylation of a FRET-peptide substrate as described by Thermo Fisher Scientific (Grand Island, N.Y.). At a starting concentration of 1.5 mM, the identified compounds were serially diluted with 100% dimethyl sulfoxide (DMSO) in 3-fold increments, into Greiner bio-one 96-well plates (cat. #: 650201, Greiner bio-one, Monroe, N.C.). Compounds were then transferred to intermediate Greiner bio-one 96-well plates and diluted 10-fold with Kinase assay buffer (25 mM HEPES, pH 7.5, 10 mM MgCl2, 10 mM MnCl2, 1 mM EGTA, and 0.01% Brij-35, 2 mM DTT). Three μL of the serially diluted compounds were then transferred in duplicate to low-volume 384-well black proxiplates (cat. #: 6008269; Perkin Elmer, Akron, Ohio), to give duplicate twelve-point concentration curves. Six μl of a 2.5× solution of IRAK4 enzyme (cat #: 40064, BPS Bioscience, San Diego, Calif.) in kinase buffer was added to each well, followed by a 10 minutes pre-incubation step. Reactions were initiated by adding 6 μl of a 2.5× substrate mix of ATP and Z′-Lyte Ser/Thr 7 peptide (cat. #: PV3180, Thermo Fisher Scientific, Grand Island, N.Y.) and proceeded at room temperature for 1 hour. The final concentration of key reagents in the 15 uL kinase reactions were 2 μM substrate, 2 nM enzyme, and 1 mM ATP, with dose responses starting at 30 μM compound. At the end of the kinase reactions, 5 μl of developing solution (as instructed in for cat. #: PV3180, Thermo Fisher Scientific, Grand Island, N.Y.) was added to each well and incubated at room temperature for 1 hour. All wells were read on an Envision 2105 Multilabel fluorescence plate reader (Perkin Elmer, Waltham, Mass.) at 400 nm excitation and 460 nm/530 nm emission. Plus and minus 100% inhibition controls were used to calculate percent inhibition and IC50 curves were generated using Graphpad Prism (La Jolla, Calif.).

[2] = target: T1, IRAK4; experiment: Western blot assay for assessing degradation of IRAK4 in MCF7 cells; format: cell-based; details: Table 5, IRAK4 degradation, 24 hour incubation, read-out: IRAK4 DC50
Protocol: Western Blot Assay for Assessing Degradation of IRAK4.
MCF7 cells, purchased from ATCC (Manassas, Va.), were used at a passage range of 2-19. Cells were seeded at 50% confluency in 96-well plates at 180 μl/well in cell media (Dulbecco's Modified Eagle medium/nutrient F-12 Ham-10% Fetal Bovine Serum) and incubated overnight. The next morning, compounds were serially diluted and added (20 μl into 180 μl media) at a final DMSO concentration of 0.1%. Cells were rinsed with cell media and replaced with compounds in media, followed by incubation overnight. After a 24 hour incubation with compound, cell were harvested (90-100% confluent at harvest). Cells were then washed once with 100 μl of Dulbecco's hosphate-buffered saline and then lysed with 40 μl of lysis buffer (1×RIPA+HALT protease inhibitor+HALT phosphatase inhibitor) on ice for 10 minutes. Lysates were then cleaned by filtration in 1.2 µm filter plates followed by western blotting. For each sample, 30 μl of lysate were added to 10 μl of 4×LDS sample buffer, then denatured at 95° C. for 5 minutes in the thermal cycler and placed on ice. Fifteen μL of each sample were then loaded on 4-15% Tris/Glycine gels and run for 25 minutes at 250 (constant) volts in 1× Tris/Glycine buffer. Protein was transferred from gels to nitrocellulose using a BioRad Turbo dry-transfer unit with the Turbo/midi default program. All blots were rinsed with ddH2O and blocked for 1 hour at room temperature in 5% bovine serum albumin (BSA) in tris-buffered saline-Tween 20 (TBS-T) (0.1%) on rocker. Blots were exposed to primary antibody in 5% BSA in TBS-T (0.1%) overnight at 4° C. on rocker. Primary antibodies, diluted 1:1000 in […], were as follows: anti-IRAK4 (cat. #: ab119942, Abcam, Cambridge, Mass.), anti-IRAK1 (cat. #: CST 4504S, Cell Signaling Technology, Danvers, Mass.), and anti-Beta-actin (Cat. #: ab8227, Abcam, Cambridge, Mass.). Blots were then washed with TBS-T (0.1%) three times for 5 minutes on a rocker at room temperature. Secondary antibody (1:18,000 anti-rabbit-HRP and/or anti-mouse-HRP in 5% BSA in TBST (0.1%) was then added, and blots incubated at room temperature rocker for 1 hour. Blots were washed 3 times in TBS-T (0.1%) for 5 minutes at room temperature on the rocker. Signal was developed with Femto Max substrate for 5 minutes and blots read on a ChemiDoc. Percent degradation was assessed by comparing IRAK4 signal in compound vs. DMSO treated lysates.

T1 sequence (Q9NWZ3 whole entry): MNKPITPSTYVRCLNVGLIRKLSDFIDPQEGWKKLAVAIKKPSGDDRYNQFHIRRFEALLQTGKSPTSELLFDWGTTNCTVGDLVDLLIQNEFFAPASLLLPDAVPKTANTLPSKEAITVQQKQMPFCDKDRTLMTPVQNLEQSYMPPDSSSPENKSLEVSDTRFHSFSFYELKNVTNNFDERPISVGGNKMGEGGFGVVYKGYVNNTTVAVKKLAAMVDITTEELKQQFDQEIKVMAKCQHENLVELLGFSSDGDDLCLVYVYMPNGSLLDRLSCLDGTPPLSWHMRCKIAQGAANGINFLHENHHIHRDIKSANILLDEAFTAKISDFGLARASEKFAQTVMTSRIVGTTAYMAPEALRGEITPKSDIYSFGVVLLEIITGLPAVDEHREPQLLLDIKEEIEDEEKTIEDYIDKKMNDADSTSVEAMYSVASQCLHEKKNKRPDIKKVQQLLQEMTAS

Row | IC50 [1] | DC50 [2] | Compound
1 | < 30 nM | 300 to 1000 nM | O=C1CCC(N2C(=O)c3cccc(NCCOCCOCCN4CCN(Cc5ccc6c(c5)nc(NC(=O)c5cccc(C(F)(F)F)c5)n6[C@H]5CC[C@@H](CO)CC5)CC4)c3C2=O)C(=O)N1 (stereo partly shown) [compound 66, N-(5-((4-(2-(2-(2-((2-(2,6-dioxopiperidin-3-yl)-1,3-dioxoisoindolin-4-yl)amino)ethoxy)ethoxy)ethyl)piperazin-1-yl)methyl)-1-((1s,4s)-4-(hydroxymethyl)cyclohexyl)-1H-benzo[d]imidazol-2-yl)-3-(trifluoromethyl)benzamide]
2 | ≥ 1000 nM | ≥ 1000 nM | O=C1CCC(N2C(=O)c3ccc(OCCOCCOC[C@H]4CC[C@@H](n5c(NC(=O)c6cccc(C(F)(F)F)c6)nc6cc(F)ccc65)CC4)cc3C2=O)C(=O)N1 (stereo partly shown) [compound 46, N-(1-((1s,4s)-4-((2-(2-((2-(2,6-dioxopiperidin-3-yl)-1,3-dioxoisoindolin-5-yl)oxy)ethoxy)ethoxy)methyl)cyclohexyl)-5-fluoro-1H-benzo[d]imidazol-2-yl)-3-(trifluoromethyl)benzamide]
3 | < 30 nM | 100 to 300 nM | O=C1CCC(N2C(=O)c3ccc(OCCN4CCN(Cc5ccc6c(c5)nc(NC(=O)c5cccc(C(F)(F)F)c5)n6[C@H]5CC[C@@H](CO)CC5)CC4)cc3C2=O)C(=O)N1 (stereo partly shown) [compound 1, N-(5-((4-(2-((2-(2,6-dioxopiperidin-3-yl)-1,3-dioxoisoindolin-5-yl)oxy)ethyl)piperazin-1-yl)methyl)-1-((1s,4s)-4-(hydroxymethyl)cyclohexyl)-1H-benzo[d]imidazol-2-yl)-3-(trifluoromethyl)benzamide]
4 | ≥ 1000 nM | ≥ 1000 nM | O=C1CCC(N2C(=O)c3ccc(OCCOCCOCCOC[C@H]4CC[C@@H](n5c(NC(=O)c6cccc(C(F)(F)F)c6)nc6cc(F)ccc65)CC4)cc3C2=O)C(=O)N1 (stereo partly shown) [compound 47, N-(1-((1s,4s)-4-((2-(2-(2-((2-(2,6-dioxopiperidin-3-yl)-1,3-dioxoisoindolin-5-yl)oxy)ethoxy)ethoxy)ethoxy)methyl)cyclohexyl)-5-fluoro-1H-benzo[d]imidazol-2-yl)-3-(trifluoromethyl)benzamide]
5 | ≥ 1000 nM | ≥ 1000 nM | N#Cc1ccc2ncnc(N[C@H]3CC[C@H](N4CCN(S(=O)(=O)CCOCCOCCOCCOCCOc5ccc6c(c5)C(=O)N(C5CCC(=O)NC5=O)C6=O)CC4)CC3)c2c1 (stereo partly shown) [compound 40]
6 | 30 to 100 nM | ≥ 1000 nM | Cc1ccc(-n2nc(N3CCN(CCOCCOCCOc4ccc5c(c4)C(=O)N(C4CCC(=O)NC4=O)C5=O)CC3)cc2NC(=O)c2cnn3cccnc23)nc1 (stereo not shown) [compound 25, N-(3-(4-(2-(2-(2-((2-(2,6-dioxopiperidin-3-yl)-1,3-dioxoisoindolin-5-yl)oxy)ethoxy)ethoxy)ethyl)piperazin-1-yl)-1-(5-methylpyridin-2-yl)-1H-pyrazol-5-yl)pyrazolo[1,5-a]pyrimidine-3-caboxamide]
7 | 300 to 1000 nM | ≥ 1000 nM | N#Cc1ccc2ncnc(N[C@H]3CC[C@H](N4CCN(CCOCCOc5ccc6c(c5)C(=O)N(C5CCC(=O)NC5=O)C6=O)CC4)CC3)c2c1 (stereo partly shown) [compound 30]
8 | ≥ 1000 nM | ≥ 1000 nM | CN(CCOCCOc1ccc2c(c1)C(=O)N(C1CCC(=O)NC1=O)C2=O)c1cccc(-n2c(NC(=O)c3cccc(C(F)(F)F)c3)nc3cc(F)ccc32)c1 (stereo not shown) [compound 51, N-(1-(3-((2-(2-((2-(2,6-dioxopiperidin-3-yl)-1,3-dioxoisoindolin-5-yl)oxy)ethoxy)ethyl)(methyl)amino)phenyl)-5-fluoro-1H-benzo[d]imidazol-2-yl)-3-(trifluoromethyl)benzamide]
9 | ≥ 1000 nM | ≥ 1000 nM | COc1cccc(-n2c(NC(=O)c3cccc(C(F)(F)F)c3)nc3cc(CN4CCN(CCOc5ccc6c(c5)C(=O)N(C5CCC(=O)NC5=O)C6=O)CC4)ccc32)c1 (stereo not shown) [compound 56, N-(5-((4-(2-((2-(2,6-dioxopiperidin-3-yl)-1,3-dioxoisoindolin-5-yl)oxy)ethyl)piperazin-1-yl)methyl)-1-(3-methoxyphenyl)-1H-benzo[d]imidazol-2-yl)-3-(trifluoromethyl)benzamide]
10 | 300 to 1000 nM | ≥ 1000 nM | Cc1ncsc1-c1ccc(CNC(=O)[C@@H]2C[C@@H](O)CN2C(=O)[C@@H](NC(=O)COCCOCCOCCN2CCN(Cc3ccc4c(c3)nc(NC(=O)c3cccc(C(F)(F)F)c3)n4C3CCC(CO)CC3)CC2)C(C)(C)C)cc1 (mixture of isomers) [compound 13, (2S,4R)-1-((S)-2-(tert-butyl)-14-(4-((1-((1SR,4SR)-4-(hydroxymethyl)cyclohexyl)-2-(3-(trifluoromethyl)benzamido)-1H-benzo[d]imidazol-5-yl)methyl)piperazin-1-yl)-4-oxo-6,9,12-trioxa-3-azatetradecanoyl)-4-hydroxy-N-(4-(4-methylthiazol-5-yl)benzyl)pyrrolidine-2-carboxamide]
11 | ≥ 1000 nM | ≥ 1000 nM | COc1cccc(-n2c(NC(=O)c3cccc(C(F)(F)F)c3)nc3cc(CN4CCN(CCOCCOCCOc5ccc6c(c5)C(=O)N(C5CCC(=O)NC5=O)C6=O)CC4)ccc32)c1 (stereo not shown) [compound 54, N-(5-((4-(2-(2-(2-((2-(2,6-dioxopiperidin-3-yl)-1,3-dioxoisoindolin-5-yl)oxy)ethoxy)ethoxy)ethyl)piperazin-1-yl)methyl)-1-(3-methoxyphenyl)-1H-benzo[d]imidazol-2-yl)-3-(trifluoromethyl)benzamide]
12 | ≥ 1000 nM | ≥ 1000 nM | O=C1CCC(N2C(=O)c3ccc(OCCN4CCN(Cc5ccc6c(c5)nc(NC(=O)c5cccc(C(F)(F)F)c5)n6-c5ccccc5)CC4)cc3C2=O)C(=O)N1 (stereo not shown) [compound 55, N-(5-((4-(2-((2-(2,6-dioxopiperidin-3-yl)-1,3-dioxoisoindolin-5-yl)oxy)ethyl)piperazin-1-yl)methyl)-1-phenyl-1H-benzo[d]imidazol-2-yl)-3-(trifluoromethyl)benzamide]
13 | ≥ 1000 nM | ≥ 1000 nM | N#Cc1ccc2ncnc(N[C@H]3CC[C@H](N4CCN(S(=O)(=O)CCOCCOc5ccc6c(c5)C(=O)N(C5CCC(=O)NC5=O)C6=O)CC4)CC3)c2c1 (stereo partly shown) [compound 34]
14 | 30 to 100 nM | ≥ 1000 nM | Cc1ncsc1-c1ccc(CNC(=O)[C@@H]2C[C@@H](O)CN2C(=O)[C@@H](NC(=O)COCCOCCN2CCN(Cc3ccc4c(c3)nc(NC(=O)c3cccc(C(F)(F)F)c3)n4[C@H]3CC[C@@H](CO)CC3)CC2)C(C)(C)C)cc1 (racemic) [compound 12, (2S,4R)-4-hydroxy-1-((S)-2-(2-(2-(2-(4-((1-((1SR,4SR)-4-(hydroxymethyl)cyclohexyl)-2-(3-(trifluoromethyl)benzamido)-1H-benzo[d]imidazol-5-yl)methyl)piperazin-1-yl)ethoxy)ethoxy)acetamido)-3,3-dimethylbutanoyl)-N-(4-(4-methylthiazol-5-yl)benzyl)pyrrolidine-2-carboxamide]
